Measurements published in ChEMBL document CHEMBL1201862, “PubChem BioAssay data set” (2004).
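Step 1: Grow cells in 96-well plates. Step 2: Expose to compound for 48 hours at 5 concentrations. Step 3: Interpolate endpoints linearly; if unreached, use highest concentration. At the GI50, growth is halved.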 Activity calls are given as the source filed them. Rule as the data show it: active = GI50 up to about 1.1 µM and inactive = higher.

Assays:
Assay in all cases: DTP human tumour cell line panel, 48 h
[1] = test system: MDA-MB-435
[2] = test system: RPMI-8226
[3] = test system: K562
[4] = test system: 786-0
[5] = test system: SNB-19
[6] = test system: ACHN
[7] = test system: MOLT-4
[8] = test system: OVCAR-5
[9] = test system: TK-10
[10] = test system: CAKI-1
[11] = test system: HOP-92
[12] = test system: HCC 2998
[13] = test system: PC-3
[14] = test system: HCT-116
[15] = test system: BT-549
[16] = test system: OVCAR-8
[17] = test system: RXF 393
[18] = test system: SR

Measured: GI50

S=C(Nc1ccc2c(c1)Cc1ccccc1-2)Nc1ccc2c(c1)Cc1ccccc1-2
inactive: [1] > 100 µM | [2] > 100 µM | [3] 19.1 µM | [4] > 100 µM | [5] > 100 µM | [6] > 100 µM | [7] 15 µM | [8] > 100 µM | [9] > 100 µM | [10] > 100 µM | [11] 80.7 µM | [12] > 100 µM | [13] > 100 µM | [14] > 100 µM | [15] > 100 µM | [16] > 100 µM | [17] > 100 µM

c1ccc(CCCNc2nnnc3ccccc23)cc1
inactive: [1] 55.1 µM | [2] 35.8 µM | [3] 47.5 µM | [4] > 100 µM | [5] > 100 µM | [6] 85.1 µM | [7] 35.6 µM | [8] > 100 µM | [9] > 100 µM | [10] 46.7 µM | [11] > 100 µM | [13] > 100 µM | [14] > 100 µM | [18] 92.9 µM | [15] > 100 µM | [16] > 100 µM | [17] 43.4 µM

O=[N+]([O-])c1cccnc1-n1cnc2ccccc21
inactive: [1] > 100 µM | [2] > 100 µM | [3] > 100 µM | [4] > 100 µM | [7] > 100 µM | [8] > 100 µM | [9] > 100 µM | [10] > 100 µM | [11] > 100 µM | [12] > 100 µM | [13] > 100 µM | [14] > 100 µM | [18] > 100 µM | [15] > 100 µM | [16] > 100 µM | [17] > 100 µM

O=C(O)C(Cc1ccccc1-c1ccccc1)C(=O)O
inactive: [1] > 100 µM | [2] > 100 µM | [3] > 100 µM | [4] > 100 µM | [5] > 100 µM | [6] > 100 µM | [7] > 100 µM | [8] > 100 µM | [9] > 100 µM | [10] > 100 µM | [11] > 100 µM | [13] > 100 µM | [14] > 100 µM | [18] > 100 µM | [15] > 100 µM | [16] > 100 µM | [17] > 100 µM

O=C(Cn1c(C(=O)c2ccccc2)nc2ccccc21)c1ccccc1
inactive: [1] 3.72 µM | [2] > 100 µM | [4] > 63.8 µM | [5] > 100 µM | [6] > 100 µM | [7] > 100 µM | [8] > 100 µM | [9] > 100 µM | [10] > 100 µM | [11] 70.5 µM | [12] > 100 µM | [13] > 72.4 µM | [14] > 100 µM | [18] > 100 µM | [15] > 100 µM | [16] > 100 µM | [17] > 100 µM

COC(=O)C(CCSC)NC(=O)Cc1ccc(C(=O)c2ccccc2)cc1 (stereo not given)
inactive: [1] 29.1 µM | [2] 46.5 µM | [3] 37.8 µM | [4] > 100 µM | [5] 82.6 µM | [6] > 100 µM | [7] 55 µM | [8] > 100 µM | [10] 70.3 µM | [11] 41.8 µM | [12] > 100 µM | [13] 56.8 µM | [14] 39.7 µM | [18] 31.3 µM | [15] 29 µM | [16] 73.3 µM | [17] > 100 µM

CN(Cc1c[n+]([O-])c2nc(N)nc(N)c2n1)c1ccc(C(=O)NC23CC4CC(CC(C4)C2)C3)cc1
inactive: [1] 77.4 µM | [2] 93.1 µM | [3] 48.9 µM | [4] > 100 µM | [5] 92.7 µM | [6] > 100 µM | [7] 32.7 µM | [8] > 100 µM | [9] > 100 µM | [10] > 100 µM | [13] 89.7 µM | [14] > 100 µM | [18] 28.8 µM | [15] 28.2 µM | [16] > 100 µM | [17] 31.2 µM

CCCCCCCCCc1cc(-c2ccc(C=O)s2)sc1-c1ccc(C=O)s1
inactive: [1] 22.6 µM | [2] 11.4 µM | [3] 3.56 µM | [4] 28.7 µM | [5] 22.6 µM | [6] 30.7 µM | [7] 1.12 µM | [8] 29.5 µM | [9] 6.47 µM | [11] 27.9 µM | [12] 35.6 µM | [13] 37.8 µM | [14] 16.6 µM | [18] 4.08 µM | [15] 35.3 µM | [16] 10.4 µM | [17] 8.81 µM

Cc1ccc(S(=O)(=O)CNC(=O)C(O)(O)C(F)(F)F)cc1
inactive: [1] > 100 µM | [2] > 100 µM | [3] > 100 µM | [4] > 100 µM | [5] > 100 µM | [7] > 100 µM | [8] > 100 µM | [9] > 100 µM | [10] > 100 µM | [11] > 100 µM | [12] > 100 µM | [13] > 100 µM | [14] > 100 µM | [18] > 100 µM | [15] > 100 µM | [16] > 100 µM | [17] > 100 µM

COc1ccc(C(O)c2ccccn2)cc1 (stereo not given)
inactive: [1] > 100 µM | [2] > 100 µM | [3] > 100 µM | [4] > 100 µM | [5] > 100 µM | [6] > 100 µM | [7] > 100 µM | [8] > 100 µM | [9] > 100 µM | [10] > 100 µM | [11] > 100 µM | [13] > 100 µM | [14] > 100 µM | [18] > 100 µM | [15] > 100 µM | [16] > 100 µM | [17] > 100 µM

CCOC(=O)C1C(=O)CC(O)(OCC)C(C(=O)OCC)C1c1ccc(OC)cc1 (stereo not given)
inactive: [1] > 100 µM | [3] > 100 µM | [4] > 100 µM | [5] > 100 µM | [6] > 100 µM | [7] > 100 µM | [8] > 100 µM | [9] > 100 µM | [10] > 100 µM | [11] > 100 µM | [12] > 100 µM | [13] > 100 µM | [14] > 100 µM | [18] > 100 µM | [15] > 100 µM | [16] > 100 µM | [17] > 100 µM

CN(C)CCNC(=O)c1nc([N+](=O)[O-])cn1C
inactive: [1] > 100 µM | [2] > 100 µM | [3] > 100 µM | [4] > 100 µM | [5] > 100 µM | [6] > 100 µM | [7] > 100 µM | [8] > 100 µM | [9] > 100 µM | [10] > 100 µM | [11] > 100 µM | [12] > 100 µM | [13] > 100 µM | [14] > 100 µM | [18] > 100 µM | [15] > 100 µM | [16] > 100 µM

CCOC(=O)N/N=C(/N)c1cccc([N+](=O)[O-])c1
inactive: [1] > 100 µM | [3] > 100 µM | [4] > 100 µM | [5] > 100 µM | [6] > 100 µM | [7] > 100 µM | [8] > 100 µM | [9] > 100 µM | [10] > 100 µM | [11] > 100 µM | [12] > 100 µM | [13] > 100 µM | [14] > 100 µM | [18] > 100 µM | [15] > 100 µM | [16] > 100 µM | [17] > 100 µM

Cc1nc(C(N)=S)sc1C(=O)CC(=O)C(=O)Nc1nc2ccccc2[nH]1
inactive: [1] > 100 µM | [2] > 100 µM | [3] > 100 µM | [4] > 100 µM | [6] > 100 µM | [7] > 100 µM | [8] > 100 µM | [9] > 100 µM | [10] > 100 µM | [11] 69.5 µM | [12] > 100 µM | [13] > 100 µM | [14] > 100 µM | [18] > 100 µM | [15] > 100 µM | [16] > 100 µM | [17] > 100 µM

C[C@@H](NC(C#N)c1ccco1)c1ccccc1 (stereo not given in full)
inactive: [1] > 100 µM | [2] > 100 µM | [3] > 100 µM | [4] > 100 µM | [5] > 100 µM | [6] > 100 µM | [7] > 100 µM | [8] > 100 µM | [9] > 100 µM | [11] 30.4 µM | [12] 32.7 µM | [13] > 100 µM | [14] > 100 µM | [18] > 100 µM | [15] > 100 µM | [16] > 100 µM | [17] > 100 µM

NNS(=O)(=O)c1cc(C(=O)O)cc(C(=O)O)c1
inactive: [1] > 100 µM | [2] > 100 µM | [3] > 100 µM | [4] > 100 µM | [5] > 100 µM | [6] > 100 µM | [7] > 100 µM | [8] > 100 µM | [9] > 100 µM | [10] > 100 µM | [11] > 100 µM | [13] > 100 µM | [14] > 100 µM | [18] > 100 µM | [15] > 100 µM | [16] > 100 µM | [17] > 100 µM
